# Data reported in article PMC2233905 (The Journal of General Physiology, 2004).
# Tests used:
# [1] = test system: outward currents of ventricular cardiomyocytes; conditions: concentrations <10 μM; ref Berul and Morad, 1995; cited from earlier work
# hEag1 channels = target: T1, hEag1 channels (Homo sapiens, UniProt O95259); assay: Whole-cell patch-clamp of hEag1 currents in stably transfected HEK-293 cells; format: cell-based
# T1 sequence (O95259 1-989): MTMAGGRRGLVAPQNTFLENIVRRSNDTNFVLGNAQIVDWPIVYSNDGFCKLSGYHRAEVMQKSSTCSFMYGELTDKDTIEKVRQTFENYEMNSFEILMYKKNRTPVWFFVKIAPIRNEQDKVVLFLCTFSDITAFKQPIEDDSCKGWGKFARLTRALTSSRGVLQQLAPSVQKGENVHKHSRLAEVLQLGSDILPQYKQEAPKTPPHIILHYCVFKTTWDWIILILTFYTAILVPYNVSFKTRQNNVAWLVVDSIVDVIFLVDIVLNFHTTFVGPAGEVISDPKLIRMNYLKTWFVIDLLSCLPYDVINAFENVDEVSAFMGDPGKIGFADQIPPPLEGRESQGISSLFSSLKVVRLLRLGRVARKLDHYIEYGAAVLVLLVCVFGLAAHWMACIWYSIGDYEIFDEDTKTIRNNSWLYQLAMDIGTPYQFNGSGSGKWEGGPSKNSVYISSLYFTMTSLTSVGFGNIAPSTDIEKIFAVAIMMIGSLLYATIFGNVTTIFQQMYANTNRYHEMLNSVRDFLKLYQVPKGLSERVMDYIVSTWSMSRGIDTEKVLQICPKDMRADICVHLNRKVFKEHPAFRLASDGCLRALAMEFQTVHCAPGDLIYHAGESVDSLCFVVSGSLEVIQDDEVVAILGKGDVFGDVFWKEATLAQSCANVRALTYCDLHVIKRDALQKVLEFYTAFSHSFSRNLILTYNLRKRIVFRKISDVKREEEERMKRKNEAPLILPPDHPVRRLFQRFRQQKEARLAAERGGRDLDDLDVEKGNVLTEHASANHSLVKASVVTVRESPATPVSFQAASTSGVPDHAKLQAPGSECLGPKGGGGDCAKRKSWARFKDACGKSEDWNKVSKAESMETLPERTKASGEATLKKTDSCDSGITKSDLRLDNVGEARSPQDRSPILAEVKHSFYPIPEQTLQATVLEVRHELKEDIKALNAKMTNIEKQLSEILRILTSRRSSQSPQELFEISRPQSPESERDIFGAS
# [2] = 10 μM imipramine or 1 μM astemizole
# [3] = 200 μM internal TEA, 80 mV, 10 μM imipramine or 1 μM astemizole
# [4] = control, 80 mV, 10 μM imipramine or 1 μM astemizole
# [5] = nonsaturating concentrations, 80 mV
compound,measurement,setting,value
COc1ccc(CCN2CCC(Nc3nc4ccccc4n3Cc3ccc(F)cc3)CC2)cc1 [astemizole],effect on currents,[1],no effects
same,Kd,hEag1 channels,109 nM
same,voltage dependence of block,hEag1 channels,insensitive to membrane potential
same,current blocked,"hEag1 channels; 100 nM astemizole in the presence of 5 μM imipramine, 60 mV",38 ± 5%
same,current blocked,"hEag1 channels; 100 nM astemizole, control external solution, 60 mV",66 ± 3%
same,k of exponential fit to τclose(V) (tail current deactivation),hEag1 channels; [2],−0.025
same,τ(0) of exponential fit to τclose(V) (tail current deactivation),hEag1 channels; [2],10.75 ms
same,τ∞ of exponential fit to τclose(V) (tail current deactivation),hEag1 channels; [2],0.75 ms
same,effect on whole-cell current when added to the intracellular solution,hEag1 channels; 25 μM in intracellular pH 6.4 solution (unpublished data),substantial block
same,reduction of potency in the presence of internal TEA,hEag1 channels; 200 μM internal TEA,~50%
same,current blocked,hEag1 channels; [3],42 ± 12%
same,τblock,hEag1 channels; [3],1084 ± 158 ms
same,effect of external TEA on the block,hEag1 channels; 7 mM external TEA,did not affect
same,IC50,"hEag1 channels; IC50(V), voltage-independent line through IC50 data, test potentials 20–120 mV",120 nM
same,IC50,"hEag1 channels; IC50, whole-cell, pHext//pHint 6.4//7.35",419 ± 68 nM
same,IC50,"hEag1 channels; IC50, whole-cell, pHext//pHint 7.4//6.4",54 ± 12 nM
same,IC50,"hEag1 channels; IC50, whole-cell, pHext//pHint 7.4//8.4",556 ± 69 nM
same,IC50,"hEag1 channels; IC50, whole-cell, pHext//pHint 8.4//7.35",37 ± 7 nM
same,current blocked,hEag1 channels; [4],87 ± 3%
same,τblock,hEag1 channels; [4],317 ± 73 ms
same,slope of logIC50 versus difference between pHext and pHint,hEag1 channels; linear fit,−0.53
same,slope of linear fit of τblock^−1 versus concentration,hEag1 channels; [5],4 s^−1μM^−1
same,y intercept of linear fit of τblock^−1 versus concentration,hEag1 channels; [5],0.4 µM
same,time constant of block washout,"hEag1 channels; pHext 7.4, pHint 6.4",235 s
same,time course of block onset,"hEag1 channels; pHext 7.4, pHint 6.4, 250 nM astemizole",60 s
same,time constant of block washout,"hEag1 channels; pHext 7.4, pHint 8.4",25 s
same,time course of block onset,"hEag1 channels; pHext 7.4, pHint 8.4, 5 μM astemizole",20 s
same,Hill coefficient of dose–response plot,"hEag1 channels; whole-cell, 80 mV",1.32
same,Hill coefficient of fit to τblock versus concentration,"hEag1 channels; whole-cell, 80 mV",1.32
same,time constant of current decay (τblock) at the IC50 concentration,"hEag1 channels; whole-cell, 80 mV",~500 ms
same,"τblock, maximum of Hill fit","hEag1 channels; whole-cell, 80 mV",1.33 s
same,"τblock, minimum of Hill fit","hEag1 channels; whole-cell, 80 mV",0.024 s
